Data on one compound can be found in ChEMBL document CHEMBL3526086, “Identification of the oxidative and conjugative enzymes involved in the biotransformation of brivanib” (Drug Metab Dispos, 2012).

Type in all cases: ADME
Series [1] deals with T1, Cytochrome P450 2D6 (Homo sapiens, UniProt P10635). The series can be described thus: Drug metabolism in human liver microsomes assessed as 1 uM quinidine-mediated inhibition of CYP2D6-mediated(R)-1-(4-(4-fluoro-2-(hydroxymethyl)-1H-indol-5-yloxy)-5-methylpyrrolo[1,2-f][1,2,4]triazin-6-yloxy)propan-2-ol formation at 2 and 20 uM for 30 mins by LC/MS analysis. The note with it: 0.5 h. (Microsomes from liver hold many membrane-bound enzymes, among them those of drug oxidation.)

The target of the next series is Cytochrome P450 2E1 (Homo sapiens, UniProt P05181). The series can be described thus: Drug metabolism in human liver microsomes assessed as 50 uM diethyldithiocarbamate-mediated inhibition of CYP2E1-mediated (R)-1-(4-(4-fluoro-2-(hydroxymethyl)-1H-indol-5-yloxy)-5-methylpyrrolo[1,2-f][1,2,4]triazin-6-yloxy)propan-2-ol formation at 2 and 20 uM for 30 mins by LC/MS analysis. The note with it: 0.5 h.

The next series addresses T2, Cytochrome P450 1A2 (Homo sapiens, UniProt P05177).
T2 sequence (P05177 whole entry): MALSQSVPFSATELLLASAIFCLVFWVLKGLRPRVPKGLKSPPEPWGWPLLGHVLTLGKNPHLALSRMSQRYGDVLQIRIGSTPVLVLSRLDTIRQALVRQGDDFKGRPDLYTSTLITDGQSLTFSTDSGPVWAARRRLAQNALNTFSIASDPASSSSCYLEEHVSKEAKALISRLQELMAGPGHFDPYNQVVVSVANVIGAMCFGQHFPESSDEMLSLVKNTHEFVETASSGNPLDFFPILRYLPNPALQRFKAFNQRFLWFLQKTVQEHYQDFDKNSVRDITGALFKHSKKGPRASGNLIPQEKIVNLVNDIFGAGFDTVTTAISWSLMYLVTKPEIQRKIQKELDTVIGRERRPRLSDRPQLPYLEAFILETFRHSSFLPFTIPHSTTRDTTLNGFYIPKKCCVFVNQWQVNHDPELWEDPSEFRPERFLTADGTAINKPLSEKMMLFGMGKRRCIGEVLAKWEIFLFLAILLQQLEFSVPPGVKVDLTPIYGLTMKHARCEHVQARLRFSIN
The series can be described thus: Drug metabolism assessed as human CYP1A2-mediated (R)-1-(4-(4-fluoro-2-(hydroxymethyl)-1H-indol-5-yloxy)-5-methylpyrrolo[1,2-f][1,2,4]triazin-6-yloxy)propan-2-ol formation at 2 and 20 uM for 20 mins by LC/MS analysis in presence of NADPH. The conditions noted are these: recombinant enzyme.

The target of series [2] is T3, Cytochrome P450 3A4 (Homo sapiens, UniProt P08684). The series can be described thus: Drug metabolism assessed as human CYP3A4-mediated (R)-1-(4-(4-fluoro-2-(hydroxymethyl)-1H-indol-5-yloxy)-5-methylpyrrolo[1,2-f][1,2,4]triazin-6-yloxy)propan-2-ol formation at 2 and 20 uM for 20 mins by LC/MS analysis in presence of NADPH. The note with it: recombinant enzyme.
For series [3], the target named is T1, Cytochrome P450 2D6. The series can be described thus: Drug metabolism assessed as human CYP2D6-mediated (R)-1-(4-(4-fluoro-2-(hydroxymethyl)-1H-indol-5-yloxy)-5-methylpyrrolo[1,2-f][1,2,4]triazin-6-yloxy)propan-2-ol formation at 2 and 20 uM for 20 mins by LC/MS analysis in presence of NADPH. The conditions noted are these: recombinant enzyme.
In the next series the target is T4, Cytochrome P450 2A6 (Homo sapiens, UniProt P11509).
T4 sequence (P11509 whole entry): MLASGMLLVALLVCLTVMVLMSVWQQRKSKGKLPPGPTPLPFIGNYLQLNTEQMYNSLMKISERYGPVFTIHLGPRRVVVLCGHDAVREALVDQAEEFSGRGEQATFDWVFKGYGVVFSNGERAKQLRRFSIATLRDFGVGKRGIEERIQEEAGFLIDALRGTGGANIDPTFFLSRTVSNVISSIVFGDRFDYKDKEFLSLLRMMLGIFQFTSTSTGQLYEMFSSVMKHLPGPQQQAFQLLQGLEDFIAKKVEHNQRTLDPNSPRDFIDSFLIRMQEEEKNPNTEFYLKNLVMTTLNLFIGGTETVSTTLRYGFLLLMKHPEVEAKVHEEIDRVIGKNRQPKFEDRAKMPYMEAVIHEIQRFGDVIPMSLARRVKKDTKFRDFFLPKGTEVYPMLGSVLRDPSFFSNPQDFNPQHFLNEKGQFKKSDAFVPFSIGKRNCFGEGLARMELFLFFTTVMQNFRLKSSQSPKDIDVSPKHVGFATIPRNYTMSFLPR
Kind of series: Drug metabolism assessed as human CYP2A6-mediated (R)-1-(4-(4-fluoro-2-(hydroxymethyl)-1H-indol-5-yloxy)-5-methylpyrrolo[1,2-f][1,2,4]triazin-6-yloxy)propan-2-ol formation at 2 and 20 uM for 20 mins by LC/MS analysis in presence of NADPH. The note with it: recombinant enzyme.

Series [4] is described as follows: Activity of CYP3A4/CYP1A2 in human liver microsomes assessed as enzyme-mediated (R)-1-(4-(4-fluoro-2-(hydroxymethyl)-1H-indol-5-yloxy)-5-methylpyrrolo[1,2-f][1,2,4]triazin-6-yloxy)propan-2-ol formation in presence of NADPH.
A short description of series [5]: Activity of CYP3A4/CYP1A2 in human liver microsomes assessed as intrinsic clearance for enzyme-mediated (R)-1-(4-(4-fluoro-2-(hydroxymethyl)-1H-indol-5-yloxy)-5-methylpyrrolo[1,2-f][1,2,4]triazin-6-yloxy)propan-2-ol formation per mg protein in presence of NADPH.
Series [6] addresses T3, Cytochrome P450 3A4. Kind of series: Activity of human CYP3A4 assessed as intrinsic clearance for enzyme-mediated (R)-1-(4-(4-fluoro-2-(hydroxymethyl)-1H-indol-5-yloxy)-5-methylpyrrolo[1,2-f][1,2,4]triazin-6-yloxy)propan-2-ol formation per picomole enzyme in presence of NADPH.
The test system of series [7] is Liver microsome. The series can be described thus: Drug metabolism in human liver microsomes assessed as (R)-1-(4-(4-fluoro-2-(hydroxymethyl)-1H-indol-5-yloxy)-5-methylpyrrolo[1,2-f][1,2,4]triazin-6-yloxy)propan-2-ol formation at 2 and 20 uM for 30 mins by LC/MS analysis in presence of antibody for CYP1A2. The conditions noted are these: 0.5 h.
In series [8] the test system is Liver microsome. The series can be described thus: Drug metabolism in human liver microsomes assessed as (R)-1-(4-(4-fluoro-2-(hydroxymethyl)-1H-indol-5-yloxy)-5-methylpyrrolo[1,2-f][1,2,4]triazin-6-yloxy)propan-2-ol formation at 2 and 20 uM for 30 mins by LC/MS analysis in presence of antibody for CYP3A4/5. The note with it: 0.5 h.
For another series, the target named is Sulfotransferase 1A1 (Homo sapiens, UniProt P50225). Kind of series: Drug metabolism assessed as human SULT1A1-mediated (R)-1-(4-(4-fluoro-2-methyl-1H-indol-5-yloxy)-5-methylpyrrolo[1,2-f][1,2,4]triazin-6-yloxy)propane-2-sulfonic acid formation at 2 and 20 uM for 30 mins by LC/MS analysis in presence of PAPS. The note with it: 0.5 h.
Another series deals with Sulfotransferase 2A1 (Homo sapiens, UniProt Q06520). Kind of series: Drug metabolism assessed as human SULT2A1-mediated (R)-1-(4-(4-fluoro-2-methyl-1H-indol-5-yloxy)-5-methylpyrrolo[1,2-f][1,2,4]triazin-6-yloxy)propane-2-sulfonic acid formation at 2 and 20 uM for 30 mins by LC/MS analysis in presence of PAPS. The note with it: 0.5 h.
For series [9], the target named is T1, Cytochrome P450 2D6. The series can be described thus: Drug metabolism in human liver microsomes assessed as monoclonal antibody-mediated inhibition of CYP2D6-mediated(R)-1-(4-(4-fluoro-2-(hydroxymethyl)-1H-indol-5-yloxy)-5-methylpyrrolo[1,2-f][1,2,4]triazin-6-yloxy)propan-2-ol formation at 2 and 20 uM for 30 mins by LC/MS analysis. The note with it: 0.5 h.

Structures are written as SMILES.

T1 sequence (P10635 whole entry): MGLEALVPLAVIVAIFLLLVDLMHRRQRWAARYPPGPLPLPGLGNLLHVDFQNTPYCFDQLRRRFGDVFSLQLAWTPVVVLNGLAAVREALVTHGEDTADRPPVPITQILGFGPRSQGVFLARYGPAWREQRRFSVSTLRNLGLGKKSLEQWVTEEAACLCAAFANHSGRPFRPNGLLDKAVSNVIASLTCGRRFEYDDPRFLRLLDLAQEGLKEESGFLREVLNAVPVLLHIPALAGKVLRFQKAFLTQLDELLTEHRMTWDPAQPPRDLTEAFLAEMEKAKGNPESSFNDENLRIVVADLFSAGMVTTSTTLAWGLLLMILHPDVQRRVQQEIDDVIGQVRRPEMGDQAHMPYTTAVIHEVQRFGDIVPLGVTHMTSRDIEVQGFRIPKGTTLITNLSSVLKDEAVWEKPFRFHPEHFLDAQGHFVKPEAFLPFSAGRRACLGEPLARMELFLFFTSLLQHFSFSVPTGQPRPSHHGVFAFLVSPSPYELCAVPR
T3 sequence (P08684 whole entry): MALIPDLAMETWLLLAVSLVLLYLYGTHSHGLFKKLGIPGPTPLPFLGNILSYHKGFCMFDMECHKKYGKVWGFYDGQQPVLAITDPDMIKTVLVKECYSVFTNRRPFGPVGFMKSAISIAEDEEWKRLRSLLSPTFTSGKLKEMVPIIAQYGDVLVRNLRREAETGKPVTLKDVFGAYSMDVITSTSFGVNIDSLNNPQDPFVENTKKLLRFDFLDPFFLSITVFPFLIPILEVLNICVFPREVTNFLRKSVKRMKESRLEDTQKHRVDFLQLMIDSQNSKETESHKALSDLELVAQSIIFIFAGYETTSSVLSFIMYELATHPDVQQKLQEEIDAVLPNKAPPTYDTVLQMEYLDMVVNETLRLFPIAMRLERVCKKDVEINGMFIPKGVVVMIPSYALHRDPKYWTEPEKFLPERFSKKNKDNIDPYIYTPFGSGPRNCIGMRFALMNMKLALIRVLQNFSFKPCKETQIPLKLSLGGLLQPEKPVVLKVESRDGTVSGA
Sulfotransferase 1A1, sequence (P50225 whole entry): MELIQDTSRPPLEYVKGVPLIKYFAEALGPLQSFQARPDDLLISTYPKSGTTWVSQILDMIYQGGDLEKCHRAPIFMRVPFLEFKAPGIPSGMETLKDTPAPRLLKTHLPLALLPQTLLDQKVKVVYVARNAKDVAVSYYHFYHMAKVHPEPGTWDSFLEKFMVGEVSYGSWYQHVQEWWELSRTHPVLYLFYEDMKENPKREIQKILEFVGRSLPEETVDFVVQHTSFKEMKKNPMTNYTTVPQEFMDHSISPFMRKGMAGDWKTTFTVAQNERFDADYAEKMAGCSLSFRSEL
Sulfotransferase 2A1, sequence (Q06520 whole entry): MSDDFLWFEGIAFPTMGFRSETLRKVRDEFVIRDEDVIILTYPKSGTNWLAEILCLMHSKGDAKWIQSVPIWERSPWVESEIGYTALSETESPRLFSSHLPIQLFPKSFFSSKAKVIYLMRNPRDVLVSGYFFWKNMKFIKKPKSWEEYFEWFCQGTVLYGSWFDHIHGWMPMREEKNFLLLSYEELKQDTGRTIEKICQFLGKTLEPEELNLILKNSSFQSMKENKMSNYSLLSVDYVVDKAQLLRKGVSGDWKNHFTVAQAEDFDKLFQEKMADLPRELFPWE
Cytochrome P450 2E1, sequence (P05181 whole entry): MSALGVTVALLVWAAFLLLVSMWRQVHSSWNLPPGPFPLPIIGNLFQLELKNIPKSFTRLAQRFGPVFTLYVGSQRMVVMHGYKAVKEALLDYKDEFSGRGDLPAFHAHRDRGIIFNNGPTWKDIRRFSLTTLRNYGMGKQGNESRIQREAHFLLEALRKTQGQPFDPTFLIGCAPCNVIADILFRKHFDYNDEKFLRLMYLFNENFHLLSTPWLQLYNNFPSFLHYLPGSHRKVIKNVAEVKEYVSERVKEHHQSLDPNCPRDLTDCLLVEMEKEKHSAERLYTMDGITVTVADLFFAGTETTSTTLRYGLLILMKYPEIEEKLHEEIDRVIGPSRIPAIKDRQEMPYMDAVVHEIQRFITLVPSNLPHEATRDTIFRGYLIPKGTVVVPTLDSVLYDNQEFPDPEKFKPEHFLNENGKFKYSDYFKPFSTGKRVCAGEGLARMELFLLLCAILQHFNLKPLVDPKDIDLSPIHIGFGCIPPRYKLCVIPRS

For `Cc1cc2c(F)c(Oc3ncnn4cc(OC[C@@H](C)O)c(C)c34)ccc2[nH]1` [BRIVANIB], the Drug metabolism result on Cytochrome P450 2D6 [1], on Cytochrome P450 2E1, at Cytochrome P450 1A2, on Cytochrome P450 3A4 [2], on Cytochrome P450 2D6 [3] and at Cytochrome P450 2A6 was “metabolite_detected” throughout. The Drug metabolism result is given as “metabolite_not_detected” in the series with Liver microsome [7]; “metabolite_not_detected” in the series on Liver microsome [8]; “metabolite_detected” at Sulfotransferase 1A1; “metabolite_detected” at Sulfotransferase 2A1; “metabolite_detected” on Cytochrome P450 2D6 [9]. The Km (as a rule, the concentration of substrate that gives half-maximal velocity) in [4] stood at 29.1 µM. Besides, the CLint in series [5] turned out to be 3.1 µL/min/mg. Moreover, on Cytochrome P450 3A4 [6], the CL amounted to 0.016 µL/min.
